Laboratory results taken from ChEMBL document CHEMBL1201862, “PubChem BioAssay data set” (2004).
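Test compounds were applied to cells in 96-well plates for 48 hours at 5 doses. Here, GI50 denotes the concentration required for 50% inhibition of growth.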 Calls of active or inactive are those of the source. No stated cut-off is given here; in the data, active = GI50 up to about 1.1 µM and inactive = higher.

Legend:
Assay in all cases: growth of human tumour cells (NCI), 48 h
[1] = system: ACHN
[2] = system: UO-31
[3] = system: UACC-257
[4] = system: A498
[5] = system: SK-MEL-2
[6] = system: COLO 205
[7] = system: SK-OV-3
[8] = system: SNB-75
[9] = system: SR
[10] = system: SW-620
[11] = system: SNB-19
[12] = system: HT-29
[13] = system: HOP-92
[14] = system: HOP-18
[15] = system: XF498
[16] = system: EKVX
[17] = system: OVCAR-5
[18] = system: CAKI-1
[19] = system: MDA-MB-435

| Structure (SMILES) | GI50 [1] | GI50 [2] | GI50 [3] | GI50 [4] | GI50 [5] | GI50 [6] | GI50 [7] | GI50 [8] | GI50 [9] | GI50 [10] | GI50 [11] | GI50 [12] | GI50 [13] | GI50 [14] | GI50 [15] | GI50 [16] | GI50 [17] | GI50 [18] | GI50 [19] |
| --- | --- | --- | --- | --- | --- | --- | --- | --- | --- | --- | --- | --- | --- | --- | --- | --- | --- | --- | --- |
| COc1ccc(Sc2ccccc2N)cc1 | 56.8 µM (inactive) | 21.8 µM (inactive) | 38.5 µM (inactive) | > 100 µM (inactive) | > 100 µM (inactive) | 17 µM (inactive) | > 100 µM (inactive) | 19.6 µM (inactive) | 22.8 µM (inactive) | 57.1 µM (inactive) | > 100 µM (inactive) | 23.3 µM (inactive) | 21.1 µM (inactive) | > 100 µM (inactive) | 0.162 µM (active) | 53.7 µM (inactive) | 46.5 µM (inactive) | – | – |
| Nc1nnc(N)n1NC(=O)C(=O)Nc1ccc([N+](=O)[O-])cc1 | > 100 µM (inactive) | > 100 µM (inactive) | > 100 µM (inactive) | > 100 µM (inactive) | > 100 µM (inactive) | > 100 µM (inactive) | > 100 µM (inactive) | > 100 µM (inactive) | > 100 µM (inactive) | > 100 µM (inactive) | > 100 µM (inactive) | > 100 µM (inactive) | > 100 µM (inactive) | > 100 µM (inactive) | > 100 µM (inactive) | > 100 µM (inactive) | > 100 µM (inactive) | > 100 µM (inactive) | – |
| O=c1cnn(C2OC(CO)C(O)C2O)c(=S)[nH]1 (stereo unspecified) | – | 28.2 µM (inactive) | > 100 µM (inactive) | > 100 µM (inactive) | 20.4 µM (inactive) | 54.1 µM (inactive) | > 100 µM (inactive) | > 100 µM (inactive) | 1.02 µM (active) | 5.21 µM (inactive) | 43.1 µM (inactive) | 13.5 µM (inactive) | > 100 µM (inactive) | > 79.1 µM (inactive) | > 100 µM (inactive) | > 100 µM (inactive) | > 78.3 µM (inactive) | 2.55 µM (inactive) | > 100 µM (inactive) |
| CCCNC(/C=C/[Si](C)(C)C)CO.CCCNCC(O)/C=C/[Si](C)(C)C (stereo unspecified) | > 100 µM (inactive) | > 100 µM (inactive) | > 100 µM (inactive) | > 100 µM (inactive) | > 100 µM (inactive) | 98.2 µM (inactive) | > 100 µM (inactive) | 40.6 µM (inactive) | > 100 µM (inactive) | > 100 µM (inactive) | > 100 µM (inactive) | > 100 µM (inactive) | 36.9 µM (inactive) | > 100 µM (inactive) | 22 µM (inactive) | > 100 µM (inactive) | > 100 µM (inactive) | – | – |
| CC1C[C@]2(C[C@@H](C)C(=O)O2)OC2CC3(C)C4CCC5C(C)(C)OC(=O)CC[C@@]56C[C@@]46CC[C@]3(C)C12 (stereo partly specified) | > 100 µM (inactive) | – | > 100 µM (inactive) | > 100 µM (inactive) | > 100 µM (inactive) | > 100 µM (inactive) | – | > 100 µM (inactive) | > 100 µM (inactive) | > 100 µM (inactive) | > 100 µM (inactive) | > 100 µM (inactive) | > 100 µM (inactive) | > 100 µM (inactive) | > 100 µM (inactive) | > 100 µM (inactive) | > 100 µM (inactive) | > 100 µM (inactive) | – |
